Patent publication US20210332024A1, “MODULATORS OF PIN1 ACTIVITY AND USES THEREOF” (Yeda Research and Development Co. Ltd., priority 2019, published 2021)
“And” between values parts separate entries of the source, which are not always exact repeats. Equal entries are not always repeated. Where two headings read alike, the source gives them in different places.

Assays:
[1] = Thiol reactivity assay (DTNB); assay type: physicochemical; details: 200 μM compound, pH 7.4, 37° C.
Procedure: 50 μM DTNB (dithionitrobenzoic acid) was incubated with 200 μM TCEP (tris(2-carboxytehyl)phosphine) in 20 mM sodium phosphate buffer (pH 7.4) with 150 mM NaCl, for 5 minutes at room temperature, in order to obtain TNB^2− (thionitrobenzoate dianion). 200 μM compounds were subsequently added to the TNB^2−, followed by immediate UV absorbance measurement at 412 nm (at 37° C.). The UV absorbance was acquired every 15 minutes for 7 hours. The assay was performed in a 384-well plate using a Spark™ 10M plate reader (Tecan). Background absorbance of compounds was subtracted by measuring the absorbance at 412 nm of each compound under the same conditions without DTNB. Compounds were measured in triplicates. The data was fitted to a second order reaction equation such that the rate constant k is the slope of ln([A][B0]/[B][A0]), where [A0] and [B0] are the initial concentrations of the compound (200 μM) and TNB^2− (100 μM) respectively, and [A] and [B] are the remaining concentrations as a function of time, as determined from the spectrometric measurement. Linear regression using Prism® software was performed to fit the rate against the first four hours of measurements.
In order to estimate the influence of the various lipophilic moieties on “warhead” reactivity [Flanagan et al., J Med Chem 2014, 57:10072-10079; Lonsdale et al., J Chem Inf Model 2017, 57:3124-3137; Dahal et al., Medchemcomm 2016, 7:864-872], the thiol reactivity of the top ten binders of the second and third generation was assessed using a high-throughput assay previously applied to the entire fragment library, as described in Resnick et al. [J Am Chem Soc 2019, 141:8951-8968]. In brief, the second-order rate constant was evaluated for a model thiol, which reflects trends in general reactivity towards thiol groups.

[2] = system: 8988T pancreatic adenocarcinoma cells; assay: Prolonged-treatment cell growth, wild-type 8988T; assay type: cell-based; details: 1 μM, 6-8 days
Procedure: The ability of Pin1-3 treatment to induce more pronounced anti-proliferative effects after prolonged treatment (6-8 days) was then assessed. In order to ensure that target engagement was maintained for the duration of the experiment, Pin1-3 was replenished in fresh media every 48 hours.
The effect of Pin1-binding compounds on 8988T pancreatic adenocarcinoma cells was assessed by incubating cells with 1 μM Pin1-3, and evaluating cell growth relative to cells incubated with vehicle (DMSO) alone. In order to confirm that the effect of Pin1-3 is mediated by Pin1, the experiment was repeated using Pin1 knockout cells.

[3] = system: Pin1-knockout pancreatic cancer cells; assay: Organoid growth in Matrigel, Pin1-knockout PATU-8988T; assay type: cell-based; details: 1 μM, 9 days
Procedure: As three dimensional (3D) organoid models can reflect in vivo results better than monolayer cell culture [Baker et al., Trends Cancer Res 2016, 2:176-190], the anti-proliferative activity of Pin1-3 in PATU-8988T was further evaluated in wild-type or Pin1-knockout cells grown as organoids in Matrigel™ droplets. Cells were treated for 9 days with Pin1-3 (or Pin1-3-AcA or vehicle as a control), replenishing the compound in media every 3 days.

[4] = system: transplanted EGFP-labeled neuroblastoma cells; assay: Primary tumor derived allograft (PDA) neuroblastoma model in zebrafish embryos; assay type: in vivo; details: 100 μM in the fish water, five days
Procedure: The anti-tumor activity of Pin1-3 was then assessed on the maintenance of fully transformed neuroblastoma cells in vivo in primary tumor derived allograft (PDA) models constructed in transplanted zebrafish embryos. EGFP-labeled neuroblastoma cells were dissected from 4-month-old Tg(dβh:MYCN;dβh:EGFP) donor zebrafish, disaggregated, counted and 200-400 GFP-labeled tumor cells were injected intravenously into the Duct of Cuvier (common cardinal vein) of 2 dpf zebrafish embryos [He et al., J Pathol 2012, 227:431-445]. One day after injection, 100 μM Pin1-3 or the DMSO control was added to the fish water containing embryos bearing the transplanted EGFP-labeled neuroblastoma cells. Five days later, the area of the EGFP-labeled tumor mass in treated embryos was quantified.

[5] = Pharmacokinetics, intravenous administration; assay type: in vivo, Male C57Bl/6J mice
Procedure: (§1) Male C57Bl/6J mice received Pin1-3 intravenously (as a 0.2 mg/ml solution in 5/5/90 NMP/Solutol/saline) or orally (as a 1 mg/ml solution in 5/5/90 NMP/Solutol/saline). The intravenous dosage was 2 mg/kg and the oral dosage was 10 mg/kg.

[6] = Pharmacokinetics, oral administration; assay type: in vivo, Male C57Bl/6J mice; details: for AUC(0-inf): read-out: AUCINF obs. (converted)
Procedure: as §1

[7] = biological target: T1, Pin1 (Homo sapiens, UniProt Q13526); assay: Pin1 levels in PDAC cells (Western blot); assay type: cell-based; details: treated for 3 days
T1 construct: endogenous in cells; host or cells: patient-derived PDAC cells
Procedure: (§2) Pancreatic ductal adenocarcinoma (PDAC) cells (derived from a human patient) were treated with Pin1-3 for 3 days. PDAC organoids were treated with Pin1-3 for 7 days (day 7 to day 14).

[8] = system: PDAC organoids; assay: PDAC organoid growth; assay type: cell-based, human; details: treated for 7 days
Procedure: as §2

[9] = intravenous 2 mg/kg, individual mice No. 1-3, 2 mg/kg
[10] = male, C57Bl/6J, mouse, in vivo, iv, 2 mg/kg, Avg. of 3 mice
[11] = male, C57Bl/6J, mouse, in vivo, iv, 2 mg/kg, individual mice No. 1-3
[12] = male, C57Bl/6J, mouse, in vivo, po, 10 mg/kg, oral 10 mg/kg, Avg. of 3 mice
[13] = male, C57Bl/6J, mouse, in vivo, po, 10 mg/kg, oral 10 mg/kg, individual mice No. 1-3
[14] = oral 10 mg/kg, individual mice No. 1-3, 10 mg/kg

T1 sequence (Q13526 whole entry): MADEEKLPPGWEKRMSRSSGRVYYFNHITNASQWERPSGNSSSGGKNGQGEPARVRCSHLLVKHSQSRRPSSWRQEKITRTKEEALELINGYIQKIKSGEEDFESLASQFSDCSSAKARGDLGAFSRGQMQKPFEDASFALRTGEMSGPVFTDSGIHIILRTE

SMILES: CC(C)(C)CN(C(=O)CCl)C1CCS(=O)(=O)C1 (stereo not shown) [Pin1-3, 2-chloro-N-(sulfolan-3-yl)-N-neopentylacetamide]
- Reactivity Log k [1]: −7.43
- Reactivity k [1]: 3.73e-08 M⁻¹ s⁻¹
- Cell viability / growth [2]: reduced pancreatic cancer cell viability
- Organoid growth [3]: no effect
- EGFP-labeled tumor mass [4]: tumor masses decreased in size
- AUC % extrap. ([5]; intravenous 2 mg/kg, Avg. of 3 mice): 0.23%
- AUC % extrap. [5, 9]: 0.36% and 0.17% and 0.18%
- AUCINF obs. [5, 9]: 294012 ng·min/mL and 365536 ng·min/mL
- AUClast [5, 9]: 293517 min*ng/ml and 17.4 hr*μM and 364891 min*ng/ml and 21.6 hr*μM
- Cl obs. [5, 9]: 6.80 mL/min/kg and 5.47 mL/min/kg
- Cmax [5, 9]: 1620 ng/mL and 2030 ng/mL
- MRTINF obs. [5, 9]: 113 min and 109 min
- T1/2 [5, 9]: 40.8 min and 43.2 min
- VSS obs. [5, 9]: 0.77 L/kg and 0.60 L/kg
- Cmax ([5]; intravenous 2 mg/kg, individual mice No. 1-3, 2 mg/kg, read-out: Cmax): 5.76 µM and 7.22 µM
- AUC(0-t) [5, 10]: 6050 ng·h/mL and 21.5 µM·h
- half-life [5, 10]: 45.6 min
- AUC(0-inf) ([5]; male, C57Bl/6J, mouse, in vivo, iv, 2 mg/kg, Avg. of 3 mice, read-out: AUCINF obs. (converted)): 6070 ng·h/mL
- clearance ([5]; male, C57Bl/6J, mouse, in vivo, iv, 2 mg/kg, Avg. of 3 mice, read-out: Cl obs.): 5.63 mL/min/kg
- Cmax ([5]; male, C57Bl/6J, mouse, in vivo, iv, 2 mg/kg, Avg. of 3 mice, read-out: Cmax): 2090 ng/mL and 7.42 µM
- MRT inf ([5]; male, C57Bl/6J, mouse, in vivo, iv, 2 mg/kg, Avg. of 3 mice, read-out: MRTINF obs.): 108 min
- Vd ([5]; male, C57Bl/6J, mouse, in vivo, iv, 2 mg/kg, Avg. of 3 mice, read-out: VSS obs.): 0.61 L/kg
- AUC(0-t) [5, 11]: 7190 ng·h/mL and 25.6 µM·h
- half-life [5, 11]: 53.4 min
- AUC(0-inf) ([5]; male, C57Bl/6J, mouse, in vivo, iv, 2 mg/kg, individual mice No. 1-3, read-out: AUCINF obs. (converted)): 7210 ng·h/mL
- clearance ([5]; male, C57Bl/6J, mouse, in vivo, iv, 2 mg/kg, individual mice No. 1-3, read-out: Cl obs.): 4.62 mL/min/kg
- Cmax ([5]; male, C57Bl/6J, mouse, in vivo, iv, 2 mg/kg, individual mice No. 1-3, read-out: Cmax): 2610 ng/mL and 9.28 µM
- MRT inf ([5]; male, C57Bl/6J, mouse, in vivo, iv, 2 mg/kg, individual mice No. 1-3, read-out: MRTINF obs.): 102 min
- Vd ([5]; male, C57Bl/6J, mouse, in vivo, iv, 2 mg/kg, individual mice No. 1-3, read-out: VSS obs.): 0.47 L/kg
- Tmax ([5]; male, C57Bl/6J, mouse, in vivo, intravenous 2 mg/kg, individual mice No. 1-3): 30 min
- AUC(0-t) [6, 12]: 9210 ng·h/mL and 32.8 µM·h
- Tmax [6, 12]: 25.2 min
- half-life [6, 12]: 49.2 min
- AUC(0-inf) [6, 12]: 9230 ng·h/mL
- Cmax ([6]; male, C57Bl/6J, mouse, in vivo, po, 10 mg/kg, oral 10 mg/kg, Avg. of 3 mice, read-out: Cmax): 11.5 µM and 3220 ng/mL
- AUC(0-t) [6, 13]: 9590 ng·h/mL and 34.1 µM·h
- Tmax [6, 13]: 15 min
- half-life [6, 13]: 38.4 min
- AUC(0-inf) [6, 13]: 9600 ng·h/mL
- Cmax ([6]; male, C57Bl/6J, mouse, in vivo, po, 10 mg/kg, oral 10 mg/kg, individual mice No. 1-3, read-out: Cmax): 4050 ng/mL and 14.4 µM
- bioavailability ([6]; male, C57Bl/6J, mouse, in vivo, oral 10 mg/kg vs intravenous 2 mg/kg, Avg., read-out: F % (oral bioavailability)): 30.4%
- AUC % extrap. ([6]; oral 10 mg/kg, Avg. of 3 mice): 0.24%
- Cl obs. ([6]; oral 10 mg/kg, Avg. of 3 mice): 18.15 mL/min/kg
- AUC % extrap. [6, 14]: 0.03% and 0.32% and 0.38%
- AUCINF obs. [6, 14]: 498172 ng·min/mL and 587646 ng·min/mL
- AUClast [6, 14]: 496559 min*ng/ml and 29.4 hr*μM and 585438 min*ng/ml and 34.7 hr*μM
- Cl obs. [6, 14]: 17.37 mL/min/kg and 20.07 mL/min/kg and 17.02 mL/min/kg
- Cmax [6, 14]: 2420 ng/mL and 3200 ng/mL
- T1/2 [6, 14]: 54.6 min and 55.2 min
- Cmax ([6]; oral 10 mg/kg, individual mice No. 1-3, 10 mg/kg, read-out: Cmax): 8.61 µM and 11.4 µM
- Pin1 levels in PDAC cells [7]: reduced Pin1 in PDAC cells in a dose-dependent manner
- PDAC organoid growth [8]: inhibited PDAC organoid growth in a dose-dependent manner
